The values below come from article PMC4641920, “Structural Determinants for Substrate Binding and Catalysis in Triphosphate Tunnel Metalloenzymes” (The Journal of Biological Chemistry, 2015).

For experiment [1], the target named is T1, mouse ThTPase (Mus musculus, UniProt Q8JZL3).
T1 construct: gene Thtpa; full-length, codon-optimized synthetic gene; pMH-HT, His6 tag cleaved by TEV as for AtTTM3; expressed in E. coli
T1 sequence (Q8JZL3 1-224): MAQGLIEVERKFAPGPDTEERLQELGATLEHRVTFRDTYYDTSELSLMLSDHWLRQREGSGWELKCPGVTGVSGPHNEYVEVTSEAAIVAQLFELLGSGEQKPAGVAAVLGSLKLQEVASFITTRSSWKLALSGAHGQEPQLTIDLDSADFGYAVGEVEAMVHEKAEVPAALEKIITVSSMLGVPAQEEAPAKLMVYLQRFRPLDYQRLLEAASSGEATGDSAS
Put plainly: X-ray crystal structure of complex (soak). The experiment is classed as binding. As to conditions: 10 mM MgCl2; low pH where activity is minimal (text: pH 6; methods: buffer pH 6.8); tunnel active site.

Another experiment deals with T2, ygiF (Escherichia coli, UniProt P30871).
T2 construct: full-length, tunnel domain plus CHAD domain; pMH-HT, His6 tag cleaved by TEV as for AtTTM3; expressed in E. coli
Put plainly: X-ray crystal structure of complex (soak). The class given is binding. As to conditions: MgCl2 (5a60) or MnCl2 (5a61), 5 mM; tunnel active site.

Experiment [2] deals with T1, mouse ThTPase. Put plainly: X-ray crystal structure of product complex (soak). The experiment is classed as binding. As to conditions: pH 9.0, 0.2 M MgCl2 in crystallization buffer.
A further experiment has as its target T3, Vtc4p (Saccharomyces cerevisiae, UniProt P47075).
T3 construct: gene VTC4; probably the cytoplasmic tunnel domain of earlier work
Put plainly: polyP synthesis, urea PAGE with DAPI stain. The class given is biochemical. As to conditions: 10 mM ATP, 1 mM MnCl2, pH 8.3, room temperature overnight.

T3 sequence (P47075 189-480 limits assumed): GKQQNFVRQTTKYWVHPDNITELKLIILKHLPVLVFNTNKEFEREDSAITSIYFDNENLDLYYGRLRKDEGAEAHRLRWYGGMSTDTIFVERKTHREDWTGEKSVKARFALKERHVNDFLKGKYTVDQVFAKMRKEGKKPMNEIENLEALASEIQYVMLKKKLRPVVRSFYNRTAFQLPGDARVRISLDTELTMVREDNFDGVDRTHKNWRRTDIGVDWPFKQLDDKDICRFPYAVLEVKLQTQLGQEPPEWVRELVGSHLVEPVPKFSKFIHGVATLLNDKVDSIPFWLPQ
T2 sequence (P30871 whole entry, the tested form may be a part): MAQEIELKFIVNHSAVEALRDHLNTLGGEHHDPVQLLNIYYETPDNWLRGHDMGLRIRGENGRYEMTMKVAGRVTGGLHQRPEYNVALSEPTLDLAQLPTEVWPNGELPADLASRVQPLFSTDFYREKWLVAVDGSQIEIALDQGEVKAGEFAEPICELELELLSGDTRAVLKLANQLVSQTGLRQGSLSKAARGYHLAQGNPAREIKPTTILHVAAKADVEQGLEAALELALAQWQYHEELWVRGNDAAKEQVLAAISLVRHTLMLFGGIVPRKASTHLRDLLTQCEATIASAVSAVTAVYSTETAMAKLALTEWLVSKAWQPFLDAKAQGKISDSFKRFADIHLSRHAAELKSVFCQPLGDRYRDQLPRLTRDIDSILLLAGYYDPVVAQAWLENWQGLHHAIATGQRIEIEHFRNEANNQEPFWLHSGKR

Take `Cc1ncc(C[n+]2csc(CCOP(=O)(O)OP(=O)(O)OP(=O)(O)O)c2C)c(N)n1` [thiamine triphosphate]: at mouse ThTPase [1], the “X-ray crystal structure of complex (soak)” value is given as “we found an intact ThTP molecule bound in the tunnel center of ThTPase”.
As for `O=P(O)(O)OP(=O)(O)OP(=O)(O)O` [tripolyphosphate], on ygiF, the “X-ray crystal structure of complex (soak)” value was “solved structures of ygiF in complex with PPPi and in the presence of either MgCl2”.
In the case of `Cc1ncc(C[n+]2csc(CCOP(=O)(O)OP(=O)(O)O)c2C)c(N)n1` [ThDP], the “X-ray crystal structure of product complex (soak)” value at mouse ThTPase [2] (tunnel active site, Pi also bound) was “with a ThDP molecule and an orthophosphate located in the tunnel center”.
Regarding `Nc1ncnc2c1ncn2[C@@H]1O[C@H](COP(=O)(O)OP(=O)(O)OP(=O)(O)O)[C@@H](O)[C@H]1O` [ATP], on Vtc4p, the “polyP synthesis, urea PAGE with DAPI stain” value was “only Vtc4p can generate inorganic polyphosphate from ATP”.
With `O=P(O)(O)O` [orthophosphate], on mouse ThTPase [2] (bound by Arg-125 near metal site 2, with ThDP), the “X-ray crystal structure of product complex (soak)” value is “with a ThDP molecule and an orthophosphate located in the tunnel center”.
